US6737383B1, “Herbicidal oxadiazolidines” (priority 1999, dated 2004)

How the values were obtained:
[1] = test system: smallflower flatsedge; experiment: Test B flood test smallflower flatsedge; type: in vivo, Cyperus difformis; details: for Plant response rating, S. Flatsedge (0 to 10 scale, 0 is no effect, 10 is complete control): Pre-emergence; for Plant response rating, S. Flatsedge (0 to 10 scale, 0 is no effect, 10 is complete control) / S. Flatsedge plant response rating (0 to 10 scale, 0 is no effect, 10 is complete control): visual evaluation after twelve to sixteen days; for S. Flatsedge plant response rating (0 to 10 scale, 0 is no effect, 10 is complete control): under heading Pre-emergence
Summary of the method: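 Read-out is a visual response score from 0 (no effect) to 10 (complete control), assigned by comparison with untreated controls. Treatment was applied at the 2-leaf stage, and plants stayed in the greenhouse for twelve to sixteen days before scoring.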

[2] = test system: surinam grass; experiment: Test B pre/postemergence surinam grass; type: in vivo, Brachiaria decumbens
Summary of the method: (§1)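 Herbicidal effect was estimated by eye on a ten-point control scale after plants spent twelve to sixteen days in a greenhouse following soil or foliar treatment. Foliar sprays targeted plants at one to four leaves; all doses were formulated in a non-phytotoxic solvent with surfactant.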

[3] = test system: blackgrass; experiment: Test B pre/postemergence blackgrass; type: in vivo, Alopecurus myosuroides
Summary of the method: as §1

[4] = test system: bedstraw; experiment: Test B pre/postemergence bedstraw; type: in vivo, Galium aparine
Summary of the method: as §1

[5] = Rate 62 g/ha, flood test species
[6] = Rate 125 g/ha, flood test species
[7] = Rate 250 g/ha, Pre-emergence (flood test species), scale 0 to 10, 0 is no effect, 10 is complete control
[8] = Rate 500 g/ha, Pre-emergence section of Table B, 0 to 10 scale (0 no effect, 10 complete control)
[9] = Postemergence, Rate 62 g/ha, scale 0 to 10, 0 is no effect, 10 is complete control
[10] = Postemergence, Rate 125 g/ha, scale of 0 to 10 where 0 is no effect and 10 is complete control
[11] = Postemergence, Rate 250 g/ha, scale of 0 to 10, 0 is no effect, 10 is complete control
[12] = Postemergence, Rate 500 g/ha, scale of 0 to 10 where 0 is no effect and 10 is complete control
[13] = Preemergence, Rate 62 g/ha, scale 0 to 10 (0 no effect, 10 complete control)
[14] = Preemergence, Rate 125 g/ha, scale of 0 to 10 where 0 is no effect and 10 is complete control
[15] = Preemergence, Rate 250 g/ha, scale 0 to 10 (0 no effect, 10 complete control)
[16] = Preemergence, Rate 500 g/ha, scale of 0 to 10 where 0 is no effect and 10 is complete control
[17] = Postemergence, Rate 250 g/ha, scale 0 to 10, 0 no effect, 10 complete control
[18] = Preemergence, Rate 125 g/ha, scale 0 to 10 (0 no effect, 10 complete control)
[19] = Preemergence, Rate 250 g/ha, scale of 0 to 10 where 0 is no effect and 10 is complete control
[20] = Preemergence, Rate 500 g/ha, scale 0 (no effect) to 10 (complete control)
[21] = Rate 500 g/ha, Postemergence, scale 0 to 10, 0 no effect, 10 complete control
[22] = Preemergence, Rate 62 g/ha, scale of 0 to 10 where 0 is no effect and 10 is complete control
[23] = Rate 500 g/ha, Postemergence, scale 0 to 10, 0 is no effect, 10 is complete control

CC(=O)NCn1c(=O)on(C(=O)N(c2ccccc2)C(C)C)c1=O [Compound 621]
Plant response rating, S. Flatsedge (0 to 10 scale, 0 is no effect, 10 is complete control) [1, 5]: 0
S. Flatsedge plant response rating (0 to 10 scale, 0 is no effect, 10 is complete control) [1, 6]: 0
S. Flatsedge plant response rating [1, 7]: 0
S. Flatsedge plant response rating [1, 8]: 0
Plant response rating, B. signalgrass [2, 9]: 0
Plant response rating, B. signalgrass [2, 10]: 0
B. signalgrass plant response rating [2, 11]: 0
Plant response rating, B. signalgrass [2, 12]: 0
B. signalgrass plant response rating [2, 13]: 0
B. signalgrass plant response rating [2, 14]: 0
Plant response rating, B. signalgrass [2, 15]: 0
B. signalgrass plant response rating [2, 16]: 0
Plant response rating, Blackgrass [3, 9]: 0
Plant response rating, Blackgrass [3, 10]: 0
Blackgrass plant response rating [3, 11]: 0
Plant response rating, Blackgrass [3, 12]: 0
Blackgrass plant response rating [3, 13]: 0
Blackgrass plant response rating [3, 14]: 0
Plant response rating, Blackgrass [3, 15]: 0
Blackgrass plant response rating [3, 16]: 0
Plant response rating, Bedstraw [4, 10]: 0
Bedstraw plant response rating [4, 13]: 0
Bedstraw plant response rating [4, 14]: 0
Plant response rating, Bedstraw [4, 15]: 0
Bedstraw plant response rating [4, 16]: 0

CCc1noc(C)c1-n1c(=O)on(C(=O)N(c2ccc(F)cc2)C(C)C)c1=O [Compound 101]
S. Flatsedge plant response rating ([1]; Postemergence (flood test species), Rate 125 g/ha, scale of 0 to 10 where 0 is no effect and 10 is complete control): 0
S. Flatsedge plant response rating ([1]; Rate 62 g/ha, Postemergence section, flood test species, scale of 0 to 10 where 0 is no effect and 10 is complete control): 0
Plant response rating, S. Flatsedge ([1]; Rate 250 g/ha, Postemergence (flood test), scale 0 to 10, 0 is no effect, 10 is complete control): 0
S. Flatsedge plant response rating ([1]; Rate 500 g/ha, listed under Postemergence (flood test species), scale 0 to 10, 0 no effect, 10 complete control): 0
B. signalgrass plant response rating [2, 9]: 0
B. signalgrass plant response rating [2, 17]: 0
B. signalgrass plant response rating [2, 13]: 0
Plant response rating, B. signalgrass [2, 18]: 0
Plant response rating, B. signalgrass [2, 19]: 0
B. signalgrass plant response rating [2, 20]: 0
B. signalgrass plant response rating ([2]; Rate 125 g/ha, Postemergence, scale 0 to 10, 0 no effect, 10 complete control): 0
B. signalgrass plant response rating ([2]; Rate 500 g/ha, Postemergence, scale of 0 to 10 where 0 is no effect and 10 is complete control): 0
Blackgrass plant response rating [3, 10]: 0
Blackgrass plant response rating [3, 17]: 0
Blackgrass plant response rating [3, 13]: 0
Plant response rating, Blackgrass [3, 18]: 0
Plant response rating, Blackgrass [3, 19]: 0
Blackgrass plant response rating [3, 20]: 0
Blackgrass plant response rating ([3]; Rate 62 g/ha, Postemergence, scale of 0 to 10 where 0 is no effect and 10 is complete control): 0
Blackgrass plant response rating [3, 21]: 0
Bedstraw plant response rating [4, 13]: 0
Plant response rating, Bedstraw [4, 18]: 0
Plant response rating, Bedstraw [4, 19]: 0
Bedstraw plant response rating [4, 20]: 0
Bedstraw plant response rating [4, 21]: 0

CC[C@@H](C)n1c(=O)on(C(=O)N(c2ccc(Cl)cc2)C(C)C)c1=O [Compound 665]
Plant response rating, S. Flatsedge (0 to 10 scale, 0 is no effect, 10 is complete control) [1, 5]: 0
S. Flatsedge plant response rating (0 to 10 scale, 0 is no effect, 10 is complete control) [1, 6]: 0
S. Flatsedge plant response rating [1, 7]: 0
S. Flatsedge plant response rating [1, 8]: 0
Plant response rating, B. signalgrass [2, 9]: 0
Plant response rating, B. signalgrass [2, 10]: 0
B. signalgrass plant response rating [2, 11]: 1
B. signalgrass plant response rating [2, 22]: 1
B. signalgrass plant response rating [2, 14]: 4
Plant response rating, B. signalgrass [2, 15]: 8
Plant response rating, B. signalgrass [2, 16]: 8
B. signalgrass plant response rating [2, 23]: 5
Plant response rating, Blackgrass [3, 9]: 3
Blackgrass plant response rating [3, 10]: 7
Blackgrass plant response rating [3, 11]: 8
Blackgrass plant response rating [3, 22]: 5
Blackgrass plant response rating [3, 14]: 7
Plant response rating, Blackgrass [3, 15]: 8
Plant response rating, Blackgrass [3, 16]: 9
Blackgrass plant response rating [3, 23]: 8
Bedstraw plant response rating [4, 11]: 0
